Test system: Staphylococcus aureus (MRSA)
Test: Broth Microdilution (CLSI-BMD), non-biofilm, 10 MRSA isolates
Type: cell-based
Description: A non-biofilm antimicrobial assay using the broth microdilution-based sensitivity method was completed at the University of Debrecen, Hungary. […] A percentage solution calculation established that twice the amount of vancomycin was needed to create the same 50% turbidity reduction in MRSA when tested in comparison to ZC-1.

CN[C@H](CC(C)C)C(=O)N[C@H]1C(=O)N[C@@H](CC(N)=O)C(=O)N[C@H]2C(=O)N[C@H]3C(=O)N[C@H](C(=O)N[C@H](C(=O)O)c4cc(O)cc(O)c4-c4cc3ccc4O)[C@H](O)c3ccc(c(Cl)c3)Oc3cc2cc(c3O[C@@H]2O[C@H](CO)[C@@H](O)[C@H](O)[C@H]2O[C@H]2C[C@](C)(N)[C@H](O)[C@H](C)O2)Oc2ccc(cc2Cl)[C@H]1O [Vancomycin]
MIC values, range (control, 10 MRSA isolates): 4 to 16 µg/mL | amount needed for the same 50% turbidity reduction in MRSA, in comparison to ZC-1 (percentage solution calculation): twice

Reference: US12605404B2, “Synthetic cellular membrane chemical ionophore delivery system comprising hexa-aqua ligand compositions” (priority 2021, dated 2026)
